Common to all, as to format: cell-based
The test system of data set [1] is K562 human leukemia cells. Put plainly: Western blot analysis of caspase target proteins Lamin B and RB. The settings on record: 1% iso-C15 (60 μg/ml). On the procedure: (§1) For Western blot assay, each cell pellet collected from 1% iso-C15 or control treated cultures was lysed in 150 μl lysis buffer with 0.5% NP-40, 0.5% deoxycholic acid and 1 mM PMSF. The cell lysates were mixed with equal volume 2× Laemmli buffer and boiled for 5 min before loaded into gel wells. Proteins were resolved in an 8% SDS-PAGE gel and transferred to nitrocellulose filter membrane. The filters were blocked with PBS-T (PBS with 0.1% Tween 20) containing 5% nonfat dry milk (Bio-Rad, Richmond, Calif.) for 1 hr and then incubated for 1 hr with proper dilution of one primary antibody in PBS-T containing 2% nonfat dry milk. The filters then were washed in PBS-T 5 min for 6 times and incubated with a 1:8000 dilution of HRP secondary antibody in PBS-T with 2% nonfat dry milk for 1 hr. After 6 washes in PBS-T, immune complexes were visualized on film using the ECL nonradioactive detection system (Amersham, Arlington Heights, Ill.). After detected with one primary antibody, the filter was striped with 0.1 mM Tris pH 7.5 and 0.05 mM β-metacapenanol at 50° C. for 30 min. The filters were washed in 300 ml PBS-T buffer for 10 min twice before blocking with PBS-T with 5% nonfat dry milk. The membranes were then reprobed with monoclonal mouse anti-human β-actin to determine the equal loading of protein for each well.
(§2) The cleavages of Lamin B, a caspase target protein, in apoptotic SNU-423 human hepatocellular carcinoma cells and K562 human leukemia cells were shown in FIGS. 14 and 15, respectively. The cells were treated with 1% control solution and 1% iso-C15 for the length of time indicated. Cell lysates were separated by SDS-PAGE. Lamin B was detected by immunoblotting with a monoclonal antibody. […] The Western blot analysis of RB protein in SNU-423 and K562 cells were shown in FIGS. 16 and 17, respectively.
Background: In western blotting, separated proteins are transferred to a membrane and probed.

Data set [2] concerns SNU-423 human hepatocellular carcinoma cells. The data set is described as above. Particulars: 1% iso-C15 (60 μg/ml). On the procedure:
as §1, §2

Data set [3] concerns K562 human leukemia cells. Put plainly: Flow cytometry annexin V / PI apoptosis detection. Particulars: 30 μg/ml, 24 hours. On the procedure:
(§3) Human cancer cell lines DU-145 (prostate cancer), K562 (leukemia), HCT116 (colon cancer), H1688 (lung cancer), SUN423 (hepatocarcinoma), MCF7 (breast cancer), CRL-1687 (pancreatic cancer), and SUN-1 (gastric cancer) were obtained from American Type Culture Collection (ATCC). 30 ml blood was collected from a health person and normal peripheral mononuclear cells were separated by Ficoll separation solution (Sigma). All cells were maintained in RPMI 1640, DMEM, or McCoy medium supplemented with 10% FCS, […] streptomycin and 100 u/ml penicillin. Normal human peripheral mononuclear cells, K562 and SUN-1 were suspended cells. After spinning at 1,500 RPM for 5 min, supernatants were discharged and cells were resuspended and expended in fresh medium. The other tumor cell lines were adherent cells and were dispersed with 0.05% trypsin/0.01% EDTA (Irvine Scientific, CA) for expansion. Cells were seeded in T75 flasks at 2×10^6 cells/flask in culture medium supplemented with 10% fetal bovine serum and incubated overnight at 37° C. with 5% CO2. The adherent cells attached to the plate were striped with disposable cell scrapers (Fisher Scientific) after treated either with 1% iso-C15, anteiso-C15 or control solution for 1, 2, 4, 8 and 24 hours and then combined with respective float cells. Cells were then prepared for flow cytometry analysis, in situ cell death detection, DNA fragmentation and Western blot assay followed the preparation methods for each assay. Cell pellets treated for 2 and 4 hr with either iso-C15 or control were also stored at −70° C. for future studies of gene regulation.
(§4) A flow cytometer (FACScan) with Consort 30 software for gating analysis (Becton Dickinson, San Jose, Calif.) was used. The Apoptosis Detection kit (R&D Systems) was used to quantitatively determine the percentage of cells undergoing apoptosis by virtue of their ability to bind annexin V and exclude propidium iodide (PI). Cells were washed in cold PBS twice and resuspended in binding buffer. Fluorescent-labeled annexin V and PI were added to the cells. The cells undergoing apoptosis, expressing phosphotidyiserine on the outer leaflet of cell membranes, would bind annexin V. The cells in later stage of apoptosis or necrosis, with a compromised cell membrane, would allow PI to bind to the cellular DNA. The resulting cells were immediately analyzed by flow cytometer equipped with a single laser emitting excitation light at 488 nm. The annexin V and PI generated signals can be detected in signal detector FL1 and FL2, respectively. […]
Background: A flow cytometer gives signals particle by particle.

The subject of a further data set is normal human PBLs. Description: Flow cytometry annexin V / PI apoptosis detection. Particulars: 60 μg/ml, 24 hours. On the procedure:
as §3, §4

Data set [4] relates to DU-145 human prostate carcinoma cell lines. Description: Apoptosis morphology, H&E, light microscope. The settings on record: 60 μg/ml, 8 hours. On the procedure:
as §3, with “Cells were then prepared for flow cytometry analysis, in situ cell death detection, DNA fragmentation and Western blot assay followed the preparation methods for each assay. Cell pellets treated for 2 and 4 hr with either iso-C15 or control were also stored at −70° C. for future studies of gene regulation.” left out

Regarding `CC(C)CCCCCCCCCCCC(=O)O` [iso-C15, 13-methyltetradecanoic acid], in data set [1], the “Lamin B cleavage” value is given as “cleaved 45 kDa products”; the “RB hypophosphorylation and cleavage” value is given as “induced the change of hyperphosphorylated RB (pRB120/hyper) to hypophosphorylated form (pRB115/hypo)”. Besides, in data set [2], the “Lamin B cleavage” value was “cleaved 45 kDa and 32 kDa products”; the “RB hypophosphorylation and cleavage” value is listed as “induced the change of hyperphosphorylated RB (pRB120/hyper) to hypophosphorylated form (pRB115/hypo)”. In data set [3], the “FL1/FL2 pattern (annexin V / PI), apoptosis” value is “the majority of the cells were undergoing apoptosis”. In the data set with normal human PBLs, the “FL1/FL2 pattern (annexin V / PI), effect on normal lymphocytes” value is listed as “no significant effects”. In addition, in data set [4], the “morphological changes indicative of apoptosis” value was “membrane blebs were noted”.

These data come from patent US7070965B1, “Small molecule anticancer compounds and related production process” (priority 1998, dated 2006).
